Laboratory results: US20210024455A1 (priority 2018, published 2021)

Assays:
TRF2 = target: T1, TRF2 (Homo sapiens, UniProt Q15554); test: biochemical; type: binding; conditions: read-out: inhibition rate (%) in DSE FRET assay
T1 sequence (Q15554 1-542): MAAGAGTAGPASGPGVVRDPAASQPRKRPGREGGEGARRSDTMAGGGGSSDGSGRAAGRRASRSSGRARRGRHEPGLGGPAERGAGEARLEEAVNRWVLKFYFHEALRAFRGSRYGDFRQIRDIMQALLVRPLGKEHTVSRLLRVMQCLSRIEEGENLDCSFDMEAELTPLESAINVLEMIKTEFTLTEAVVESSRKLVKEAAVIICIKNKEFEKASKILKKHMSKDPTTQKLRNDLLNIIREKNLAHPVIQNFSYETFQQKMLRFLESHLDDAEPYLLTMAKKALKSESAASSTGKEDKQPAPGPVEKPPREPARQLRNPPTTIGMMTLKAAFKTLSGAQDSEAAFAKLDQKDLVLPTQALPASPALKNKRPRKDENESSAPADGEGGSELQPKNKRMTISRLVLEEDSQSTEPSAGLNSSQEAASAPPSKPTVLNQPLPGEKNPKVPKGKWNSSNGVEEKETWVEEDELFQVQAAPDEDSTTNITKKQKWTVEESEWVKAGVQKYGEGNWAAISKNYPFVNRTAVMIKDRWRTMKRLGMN

HeLa1.2.11 cells = test: cells; type: cell-based; conditions: read-out: IC50, suppressing proliferation of HeLa1.2.11 cells

Row | Compound | inhibition at 50 µM (TRF2) [%] | IC50 (HeLa1.2.11 cells) [µM]
1 | CC(=O)c1ccc(N(c2ccc(C)cc2)c2ccccc2Oc2c([N+](=O)[O-])cc([N+](=O)[O-])cc2[N+](=O)[O-])cc1 [compound 225] | 36.9 | 28
2 | Cc1cc([N+](=O)[O-])cc([N+](=O)[O-])c1Oc1ccccc1N(c1ccccc1)c1ccc(C(C)(C)C)cc1 [compound 228] | 11.8 | 20
3 | COc1ccc(N(c2ccccc2)c2cc(C(C)(C)C)ccc2Oc2c([N+](=O)[O-])cc([N+](=O)[O-])cc2[N+](=O)[O-])cc1 [compound #207] | 23.7 | 19
4 | O=[N+]([O-])c1cc([N+](=O)[O-])c(Oc2ccccc2N(c2ccccc2)c2ccccc2)c([N+](=O)[O-])c1 [compound 144] | 38.3 | 31
5 | CC(=O)c1ccc(N(c2ccccc2)c2cc(C(C)(C)C)ccc2Oc2c([N+](=O)[O-])cc([N+](=O)[O-])cc2[N+](=O)[O-])cc1 [compound 201] | 23 | 15
6 | CC(=O)c1ccc(N(c2ccccc2)c2ccccc2Oc2c([N+](=O)[O-])cc([N+](=O)[O-])cc2[N+](=O)[O-])cc1 [compound 168] | 25.5 | 43
7 | CC(C)(C)c1ccc(Oc2c([N+](=O)[O-])cc([N+](=O)[O-])cc2[N+](=O)[O-])c(N(c2ccccc2)c2ccccc2)c1 [compound 192] | 33.6 | 24
8 | CC(=O)c1ccc(N(c2ccc(C(C)(C)C)cc2)c2ccccc2Oc2c([N+](=O)[O-])cc([N+](=O)[O-])cc2[N+](=O)[O-])cc1 [compound 227] | 18.4 | 18
9 | COc1ccc(N(c2ccccc2)c2ccccc2Oc2c([N+](=O)[O-])cc([N+](=O)[O-])cc2[N+](=O)[O-])cc1 [compound 204] | 20.4 | 20
10 | CC(=O)c1ccc(N(c2ccc(C(C)=O)cc2)c2ccccc2Oc2c([N+](=O)[O-])cc([N+](=O)[O-])cc2[N+](=O)[O-])cc1 [compound 171] | 24.7 | 48
11 | Cc1ccc(N(c2ccccc2)c2ccccc2Oc2c([N+](=O)[O-])cc([N+](=O)[O-])cc2[N+](=O)[O-])cc1 [compound 145] | 38.7 | 26
